Experimental data reported in US4148795A, “Dithiocarbamate ester bactericides and fungicides” (American Cyanamid Company, priority 1976, dated 1979).
“And” between values parts separate entries of the source, which are not always exact repeats. Equal entries are not always repeated. Where two headings read alike, the source gives them in different places.

Experiments:
[1] = test system: Colletotrichum lagenarium; settings: in vivo; note: key: 5: clean, no disease; 4: trace of disease; 3: slight disease; 2: moderate disease; 1: severe disease; 0: like controls
Piricularia oryzae = assay type: in vivo; set-up: scale not given here; settings: Rice Blast, five days
Phytophthora infestans = assay type: in vivo; set-up: scale not given here; settings: Tomato Late Blight, five days
Venturia inaequalis = settings: in vivo; note: key: 5: clean, no disease; 4: trace of disease; 3: slight disease; 2: moderate disease; 1: severe disease; 0: like controls
Xanthomonas vesicatoria = assay type: cell-based; settings: 100 ppm; subcultures 72 hours at 37° C; note: key: 0: No Effect; 9: Kill of Bacteria; 5: Stasis, but not Kill of all Bacteria
Staphylococcus aureus = assay type: cell-based; settings: 100 ppm; subcultures 72 hours at 37° C; note: key: 0: No Effect; 9: Kill of Bacteria; 5: Stasis, but not Kill of all Bacteria
Pseudomonas solaracaerum = assay type: cell-based; settings: 100 ppm, 72 hours at 23° C; note: key: 0: no control; 5: 100% effectiveness of the test compound against the specified organism
Verticillium albo-atrum = experiment: Agar dilution plate; assay type: cell-based; settings: Va; 100 ppm, 72 hours at 23° C
Summary of the method: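 Compounds incorporated at about 100 ppm into Sabouraud's dextrose agar, then inoculated with the fungus and incubated about 72 hours at 23° C. Growth scored as 0 (no control) or 5 (100% effectiveness); test repeated twice.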

[2] = test system: Stemphylium sarcinaeforme; experiment: Agar dilution plate; assay type: cell-based; settings: Ss; 100 ppm, 72 hours at 23° C
Summary of the method: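 Compound incorporated into Sabouraud's dextrose agar at about 100 ppm, inoculated with Stemphylium sarcinaeforme and incubated about 72 hours at 23 °C. Growth scored 0 (no control) or 5 (100% effectiveness), test run in repeat.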

Fusarium lycopersici = experiment: Agar dilution plate; assay type: cell-based; settings: Fl; 100 ppm, 72 hours at 23° C
Summary of the method: (§1)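 Growth ratings of 0 (no control) or 5 (100% effectiveness) were assigned after about 72 hours at 23° C on inoculated Sabouraud's dextrose agar containing roughly 100 ppm of the active ingredient. Each test was run twice more.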

Rhizoctonia solani = experiment: Agar dilution plate; assay type: cell-based; settings: Rs; 100 ppm, 72 hours at 23° C
Summary of the method: as §1

Pythium de Baryanum = experiment: Agar dilution plate; assay type: cell-based; settings: Pd; 100 ppm, 72 hours at 23° C
Summary of the method: as §1

Monilinia fructicola [3] = experiment: Agar dilution plate; assay type: cell-based; settings: Mf; 100 ppm, 72 hours at 23° C
Summary of the method: as §1

Aspergillus niger [4] = experiment: Agar dilution plate; assay type: cell-based; settings: An; 100 ppm, 72 hours at 23° C
Summary of the method: as §1

[5] = test system: Collectotrichum lagenarium; experiment: Agar dilution plate; assay type: cell-based; settings: Cl; 100 ppm, 72 hours at 23° C
Summary of the method: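 Compounds were incorporated at about 100 ppm in Sabouraud's dextrose agar, inoculated, and incubated about 72 h at 23 °C. Growth was scored 0 (no control) or 5 (100% effectiveness), and the test was repeated twice.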

Aerobacter aerogenes = assay type: cell-based; settings: 100 ppm; subcultures 72 hours at 37° C; note: key: 0: No Effect; 9: Kill of Bacteria; 5: Stasis, but not Kill of all Bacteria
[6] = test system: Stemphylium sarcinaeforme; experiment: Spore germination inhibition; assay type: cell-based; settings: Stemphylium sarciniforme; for inhibition at 100 ppm: 24 h, read-out: % Inhibition of Spore Germination; for inhibition at 1 ppm / inhibition at 10 ppm: 24 hours
Summary of the method: (§2)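 Test compounds were suspended in water at 100, 10 or 1 ppm and inoculated with spore suspensions from 7-day (A. niger) or 14-day potato-dextrose agar cultures. Vials were tumbled for 24 hours and then examined for inhibition of mycelial growth.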

Monilinia fructicola [7] = experiment: Spore germination inhibition; assay type: cell-based; settings: for inhibition at 1 ppm / inhibition at 10 ppm: 24 hours; for inhibition at 100 ppm: 24 h, read-out: % Inhibition of Spore Germination
Summary of the method: as §2

Aspergillus niger [8] = experiment: Spore germination inhibition; assay type: cell-based; settings: 24 hours
Summary of the method: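 Test compound is suspended in water at 100, 10 or 1 ppm. and dispensed into one dram "opticlear" vials. Each vial receives one drop of a spore suspension taken from seven-day Aspergillus niger cultures grown on potato-dextrose agar. Capped vials rotate on a tumbler for 24 hours, then are inspected for inhibition of mycelial growth.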

Compound	disease control index [1]	disease control index (Piricularia oryzae; 150 ppm)	disease control index (Piricularia oryzae; 300 ppm)	disease control index (Venturia inaequalis)	Antibacterial Activity rating (Xanthomonas vesicatoria)	Antibacterial Activity rating (Staphylococcus aureus)	Agar Dilution Plate rating (Pseudomonas solaracaerum)	Agar Dilution Plate rating (Verticillium albo-atrum)	Agar Dilution Plate rating [2]	Agar Dilution Plate rating (Fusarium lycopersici)	Agar Dilution Plate rating (Rhizoctonia solani)	Agar Dilution Plate rating (Pythium de Baryanum)	Agar Dilution Plate rating (Monilinia fructicola [3])	Agar Dilution Plate rating (Aspergillus niger [4])	Agar Dilution Plate rating [5]	Antibacterial Activity rating (Aerobacter aerogenes)	inhibition at 100 ppm [6]	inhibition at 1 ppm (Monilinia fructicola [7])	inhibition at 10 ppm (Monilinia fructicola [7])	inhibition at 100 ppm (Monilinia fructicola [7])	also measured
O=[N+]([O-])C(CSC(=S)N1CCCCC1)CSC(=S)N1CCCCC1 [Example 3, 2-Nitrotrimethylene 1-Piperidinecarbodithioate]	4	5	5	–	–	–	–	–	–	–	–	–	–	–	–	–	–	–	–	–	disease control index (Phytophthora infestans; 150 ppm): 4; disease control index (Phytophthora infestans; 300 ppm): 4
CN(C)CC(C)(CSC(=S)N(C)C)[N+](=O)[O-] (centres unmarked) [Example 7, 3-Dimethylamino-2-methyl-2-nitropropyl Dimethyldithiocarbamate]	2	2	2	5 and 0	5	9	0	5 (100% effectiveness of the test compound against the specified organism)	5 (100% effectiveness of the test compound against the specified organism)	0	5 (100% effectiveness of the test compound against the specified organism)	0	5 (100% effectiveness of the test compound against the specified organism)	0	5 (100% effectiveness of the test compound against the specified organism)	9	0%	0%	100%	100%	disease control index (Piricularia oryzae; 600 ppm): 4; disease control index (Piricularia oryzae; 1200 ppm): 5; inhibition at 1 ppm (Aspergillus niger [8]): 0%; inhibition at 10 ppm (Aspergillus niger [8]): 100%; inhibition at 100 ppm (Aspergillus niger [8]): 100%
CN(C)C(=S)SC(c1ccc(Cl)cc1Cl)C(C(c1ccc(Cl)cc1Cl)N(C)C)[N+](=O)[O-] (centres unmarked) [Example 8, 1,3-Bis(2,4-dichlorophenyl)-3-dimethylamino-2-nitropropyl Dimethyldithiocarbamate]	5	–	–	5 and 4	0	5	0	5 (100% effectiveness of the test compound against the specified organism)	0	0	0	0	5 (100% effectiveness of the test compound against the specified organism)	0	0	0	–	–	–	–	disease control index (Piricularia oryzae; at 100 ppm): 5; disease control index (Piricularia oryzae; at 500 ppm): 5; disease control index (Phytophthora infestans; at 100 ppm): 5; disease control index (Phytophthora infestans; at 500 ppm): 5
O=[N+]([O-])CC(SC(=S)N1CCCC1)c1ccccc1 (stereo not drawn) [Example 15, α-(Nitromethyl)benzyl 1-pyrrolidinecarbodithioate]	5	4	4	–	–	–	–	–	–	–	–	–	–	–	–	–	–	–	–	–	–
O=[N+]([O-])CC(SC(=S)N1CCCCC1)c1ccccc1 (stereo not drawn) [Example 16, α-(Nitromethyl)benzyl 1-Piperidinecarbodithioate]	5	5	5	5	–	–	–	–	–	–	–	–	–	–	–	–	–	–	–	–	–
CC(C(SC(=S)N(C)C)c1ccccc1)[N+](=O)[O-] (stereo not drawn) [Example 18, α-(1-Nitroethyl)benzyl Dimethyldithiocarbamate]	5	–	–	5	0	5	0	5 (100% effectiveness of the test compound against the specified organism)	5 (100% effectiveness of the test compound against the specified organism)	5 (100% effectiveness of the test compound against the specified organism)	5 (100% effectiveness of the test compound against the specified organism)	5 (100% effectiveness of the test compound against the specified organism)	5 (100% effectiveness of the test compound against the specified organism)	0	5 (100% effectiveness of the test compound against the specified organism)	0	–	–	–	–	disease control index (Piricularia oryzae; at 100 ppm): 5; disease control index (Piricularia oryzae; at 500 ppm): 5; disease control index (Phytophthora infestans; at 100 ppm): 5; disease control index (Phytophthora infestans; at 500 ppm): 5
CN(C)C(=S)SC(C[N+](=O)[O-])c1ccc2c(c1)OCO2 (stereo not drawn) [Example 28, 3,4-(Methylenedioxy)-α-(nitromethyl)benzyl Dimethyldithiocarbamate]	5	0	0	5 and 0	5	5	0	5 (100% effectiveness of the test compound against the specified organism)	5 (100% effectiveness of the test compound against the specified organism)	0	0	5 (100% effectiveness of the test compound against the specified organism)	5 (100% effectiveness of the test compound against the specified organism)	0	5 (100% effectiveness of the test compound against the specified organism)	9	100%	100%	100%	100%	disease control index (Piricularia oryzae; 600 ppm): 5; disease control index (Piricularia oryzae; 1200 ppm): 5; disease control index (Phytophthora infestans; at 100 ppm): 5; disease control index (Phytophthora infestans; at 500 ppm): 5; inhibition at 1 ppm [6]: 0%; inhibition at 10 ppm [6]: 0%; inhibition at 1 ppm (Aspergillus niger [8]): 100%; inhibition at 10 ppm (Aspergillus niger [8]): 100%; inhibition at 100 ppm (Aspergillus niger [8]): 100%
CN(C)C(=S)SC(C[N+](=O)[O-])c1cccs1 (stereo not drawn) [Example 33, α-(Nitromethyl)-2-thenyl Dimethyldithiocarbamate]	–	5	5	5	0	5	0	0	5 (100% effectiveness of the test compound against the specified organism)	0	0	0	5 (100% effectiveness of the test compound against the specified organism)	0	5 (100% effectiveness of the test compound against the specified organism)	0	100%	100%	100%	100%	disease control index (Phytophthora infestans; 150 ppm): 5; disease control index (Phytophthora infestans; 300 ppm): 5; inhibition at 1 ppm [6]: 100%; inhibition at 10 ppm [6]: 100%; inhibition at 1 ppm (Aspergillus niger [8]): 0%; inhibition at 10 ppm (Aspergillus niger [8]): 100%; inhibition at 100 ppm (Aspergillus niger [8]): 100%
